US8691864B2, “Agents useful for reducing amyloid precursor protein and treating dementia and methods of use thereof” (priority 2000, dated 2014)

These compounds were tested on SH-SY-5Y Cells (assay: MTS toxicity assay in SHSY5Y cells). Details: Dose 2 uM.
Type: cell-based, human
Protocol: (§1) An enzyme-linked immunosorbent assay was developed to detect secreted APP in SHSY5Y cells, a human neuroblastoma cell line. The purpose of the screen was to discover small molecules that inhibit APP protein synthesis in SHSY5Y cells. SHSY5Y cells were plated at 1×10^5 cells/well in […] of DMEM containing 0.5% heat inactivated FBS in 96 well tissue culture treated plates (Falcon no. 35 3072). 144 MES compounds were tested at final concentrations of […] in 0.1% DMSO. Compounds were added and the plates incubated for 16 hours at 37° C./5% CO2. Maxisorp plates (Nunc no. 437958) were coated overnight with […] capture antibody (Biosource 44-100) diluted in Ca^++ and Mg^++ free PBS. Biosource 44-100 is a mouse mAb that recognizes aa 1-100 of human APP. Plates were blocked for 30 minutes with 1 mg/mL BSA in Ca^++ and Mg^++ free PBS. Plates were washed 3× with wash buffer (Ca^++ and Mg^++ free PBS+0.01% Tween20). […] of supernatants and non-cultured medium controls were transferred from culture plates to ELISA plates. Culture plates were reserved for toxicity analysis. Supernatants were incubated for 4 hours at RT on a plate shaker. After supernatant incubation, plates were washed 3×. Primary antibody (Signet Clone 6E-10 biotin) was added at 0.3125 mg/mL and incubated overnight at 4° C. The recognition site of 6E-10 is aa 1-17 of Ab. For detection, a 1:3000 dilution of horseradish peroxidase conjugated streptavidin (Endogen no. N-100) was incubated for 30 minutes. Plates were washed 3×. Enzyme activity was assessed by incubation with […] TMB substrate solution (Moss no. TMB-US) for 20 minutes. The reaction was stopped by the addition of […] 0.18M sulfuric acid. Optical density was read at 450 nm on Wallac Victor2 plate reader. During the first incubation, toxicity was determined using MTS assay, Cell Titer96 AQ reagent (Promega no. G5430). The background values from the non-cultured medium control were subtracted from the sample values and secreted APP levels and toxicity were expressed as % vehicle control. Of the 144 MES compounds screened, 12 inhibited secreted APP as determined by ELISA. The results are depicted in FIGS. 13A-M.
(§2) Using the experimental procedure outlined above, APP secretion and toxicity studies were performed on several other non-carbamate compounds, and the results are shown in Tables 3 and 4. The compound structures are provided in Table 2 in the application, which are identified by their MES number.

Point of comparison: `COc1ccc2c(c1)[C@]1(C)CCOC1N2C` (stereo partly drawn) [MES 9318], “APP Toxicity SH-SY-5Y Cells (MTS assay)” value 96.2 % vehicle control. Against it:
- COc1ccc2[nH]c3c(c2c1)CCN(C)C3 [MES 9316] — higher, 99.15 % vehicle control
- C/N=C(\C)c1cccc(OC)c1 [MES 9270] — higher, 99.4 % vehicle control
- COc1ccc2c(c1)[C@@](C)(CCN(C)C)C(=O)N2C [MES 9310] — higher, 101.85 % vehicle control
- CN1CC[C@]2(C)c3cc(O)ccc3N(Cc3ccccc3)C12 (stereo partly drawn) [MES 9215] — lower, 92.3 % vehicle control
- C=CC1C[N+]2(Cc3ccc(C(F)(F)F)cc3)CCC1CC2[C@H](O)c1ccnc2ccccc12.[Br-] (stereo partly drawn) [MES 9226] — higher, 106.4 % vehicle control

Same assay, conditions: Dose 2 uM; listed as 9228

In the case of `COc1ccc2c(c1)[C@@]1(C)CCNC1N2C` (stereo partly drawn) [MES 9228], the “APP Toxicity SH-SY-5Y Cells (MTS assay)” value is reported as 102.8 % vehicle control.

Same assay, conditions: Dose 2 uM; listed as 9294

For `COc1ccc2c(c1)[C@@]1(C)CCNC1N2C` (stereo partly drawn) [MES 9294], the “APP Toxicity SH-SY-5Y Cells (MTS assay)” value was 99.9 % vehicle control.

Same assay, conditions: Dose 6 uM

Point of comparison: `COc1ccc2c(c1)[C@@](C)(CCN(C)C)C(=O)N2C` [MES 9310], “APP Toxicity SH-SY-5Y Cells (MTS assay)” value 99.9 % vehicle control. Against it:
- COc1ccc2c(c1)[C@]1(C)CCOC1N2C (stereo partly drawn) [MES 9318] — lower, 96.45 % vehicle control
- COc1ccc2[nH]c3c(c2c1)CCN(C)C3 [MES 9316] — lower, 98.05 % vehicle control
- C/N=C(\C)c1cccc(OC)c1 [MES 9270] — higher, 101.1 % vehicle control
- CN1CC[C@]2(C)c3cc(O)ccc3N(Cc3ccccc3)C12 (stereo partly drawn) [MES 9215] — lower, 78.6 % vehicle control
- C=CC1C[N+]2(Cc3ccc(C(F)(F)F)cc3)CCC1CC2[C@H](O)c1ccnc2ccccc12.[Br-] (stereo partly drawn) [MES 9226] — lower, 99.7 % vehicle control

Same assay, conditions: Dose 6 uM; listed as 9228

In the case of `COc1ccc2c(c1)[C@@]1(C)CCNC1N2C` (stereo partly drawn) [MES 9228], the “APP Toxicity SH-SY-5Y Cells (MTS assay)” value is reported as 97.6 % vehicle control.

Same assay, conditions: Dose 6 uM; listed as 9294

`COc1ccc2c(c1)[C@@]1(C)CCNC1N2C` (stereo partly drawn) [MES 9294] was tested, and the “APP Toxicity SH-SY-5Y Cells (MTS assay)” value was 98.3 % vehicle control.

Same assay, conditions: Dose 20 uM

Point of comparison: `COc1ccc2[nH]c3c(c2c1)CCN(C)C3` [MES 9316], “APP Toxicity SH-SY-5Y Cells (MTS assay)” value 98.75 % vehicle control. Against it:
- COc1ccc2c(c1)[C@]1(C)CCOC1N2C (stereo partly drawn) [MES 9318] — lower, 96.05 % vehicle control
- C/N=C(\C)c1cccc(OC)c1 [MES 9270] — higher, 100.4 % vehicle control
- COc1ccc2c(c1)[C@@](C)(CCN(C)C)C(=O)N2C [MES 9310] — lower, 97.7 % vehicle control
- CN1CC[C@]2(C)c3cc(O)ccc3N(Cc3ccccc3)C12 (stereo partly drawn) [MES 9215] — lower, 12.9 % vehicle control
- C=CC1C[N+]2(Cc3ccc(C(F)(F)F)cc3)CCC1CC2[C@H](O)c1ccnc2ccccc12.[Br-] (stereo partly drawn) [MES 9226] — lower, 97.9 % vehicle control

Same assay, conditions: Dose 20 uM; listed as 9228

For `COc1ccc2c(c1)[C@@]1(C)CCNC1N2C` (stereo partly drawn) [MES 9228], the “APP Toxicity SH-SY-5Y Cells (MTS assay)” value was 95.4 % vehicle control.

Same assay, conditions: Dose 20 uM; listed as 9294

In the case of `COc1ccc2c(c1)[C@@]1(C)CCNC1N2C` (stereo partly drawn) [MES 9294], the “APP Toxicity SH-SY-5Y Cells (MTS assay)” value is reported as 100.2 % vehicle control.

These compounds were tested on secreted APP (assay: ELISA for secreted APP in SHSY5Y cells). Details: Dose 2 uM, 16 hours.
Type: cell-based, human
Protocol: as §1, §2

Point of comparison: `C/N=C(\C)c1cccc(OC)c1` [MES 9270], “APP Secretion by SH-SY-5Y Cells” value 95.8 % vehicle control. Against it:
- COc1ccc2c(c1)[C@]1(C)CCOC1N2C (stereo partly drawn) [MES 9318] — higher, 104.05 % vehicle control
- COc1ccc2[nH]c3c(c2c1)CCN(C)C3 [MES 9316] — higher, 104.15 % vehicle control
- COc1ccc2c(c1)[C@@](C)(CCN(C)C)C(=O)N2C [MES 9310] — higher, 104.8 % vehicle control
- CN1CC[C@]2(C)c3cc(O)ccc3N(Cc3ccccc3)C12 (stereo partly drawn) [MES 9215] — lower, 94.55 % vehicle control
- C=CC1C[N+]2(Cc3ccc(C(F)(F)F)cc3)CCC1CC2[C@H](O)c1ccnc2ccccc12.[Br-] (stereo partly drawn) [MES 9226] — higher, 116.55 % vehicle control

Same assay, conditions: Dose 2 uM, 16 hours; listed as 9228

With `COc1ccc2c(c1)[C@@]1(C)CCNC1N2C` (stereo partly drawn) [MES 9228] the “APP Secretion by SH-SY-5Y Cells” value was 97.75 % vehicle control.

Same assay, conditions: Dose 2 uM, 16 hours; listed as 9294

`COc1ccc2c(c1)[C@@]1(C)CCNC1N2C` (stereo partly drawn) [MES 9294] was tested, and the “APP Secretion by SH-SY-5Y Cells” value was 105.25 % vehicle control.

Same assay, conditions: Dose 6 uM, 16 hours

Point of comparison: `CN1CC[C@]2(C)c3cc(O)ccc3N(Cc3ccccc3)C12` (stereo partly drawn) [MES 9215], “APP Secretion by SH-SY-5Y Cells” value 108.1 % vehicle control. Against it:
- COc1ccc2c(c1)[C@]1(C)CCOC1N2C (stereo partly drawn) [MES 9318] — lower, 103.4 % vehicle control
- COc1ccc2[nH]c3c(c2c1)CCN(C)C3 [MES 9316] — lower, 98.45 % vehicle control
- C/N=C(\C)c1cccc(OC)c1 [MES 9270] — lower, 95.9 % vehicle control
- COc1ccc2c(c1)[C@@](C)(CCN(C)C)C(=O)N2C [MES 9310] — lower, 97.85 % vehicle control
- C=CC1C[N+]2(Cc3ccc(C(F)(F)F)cc3)CCC1CC2[C@H](O)c1ccnc2ccccc12.[Br-] (stereo partly drawn) [MES 9226] — lower, 101.95 % vehicle control

Same assay, conditions: Dose 6 uM, 16 hours; listed as 9228

With `COc1ccc2c(c1)[C@@]1(C)CCNC1N2C` (stereo partly drawn) [MES 9228] the “APP Secretion by SH-SY-5Y Cells” value was 110.45 % vehicle control.

Same assay, conditions: Dose 6 uM, 16 hours; listed as 9294

In the case of `COc1ccc2c(c1)[C@@]1(C)CCNC1N2C` (stereo partly drawn) [MES 9294], the “APP Secretion by SH-SY-5Y Cells” value is reported as 90 % vehicle control.

Same assay, conditions: Dose 20 uM, 16 hours

Point of comparison: `COc1ccc2[nH]c3c(c2c1)CCN(C)C3` [MES 9316], “APP Secretion by SH-SY-5Y Cells” value 102 % vehicle control. Against it:
- COc1ccc2c(c1)[C@]1(C)CCOC1N2C (stereo partly drawn) [MES 9318] — higher, 108.75 % vehicle control
- C/N=C(\C)c1cccc(OC)c1 [MES 9270] — lower, 98.15 % vehicle control
- COc1ccc2c(c1)[C@@](C)(CCN(C)C)C(=O)N2C [MES 9310] — lower, 98.95 % vehicle control
- CN1CC[C@]2(C)c3cc(O)ccc3N(Cc3ccccc3)C12 (stereo partly drawn) [MES 9215] — lower, 6.2 % vehicle control
- C=CC1C[N+]2(Cc3ccc(C(F)(F)F)cc3)CCC1CC2[C@H](O)c1ccnc2ccccc12.[Br-] (stereo partly drawn) [MES 9226] — higher, 104.65 % vehicle control

Same assay, conditions: Dose 20 uM, 16 hours; listed as 9228

For `COc1ccc2c(c1)[C@@]1(C)CCNC1N2C` (stereo partly drawn) [MES 9228], the “APP Secretion by SH-SY-5Y Cells” value was 130.05 % vehicle control.

Same assay, conditions: Dose 20 uM, 16 hours; listed as 9294

With `COc1ccc2c(c1)[C@@]1(C)CCNC1N2C` (stereo partly drawn) [MES 9294] the “APP Secretion by SH-SY-5Y Cells” value was 111 % vehicle control.
